According to US8309550B2, “Kinase inhibitors and their use as pharmaceutical agents” (Shanghai Genomics, Inc., priority 2011, dated 2012):

What was measured:
Assay type in all cases: biochemical
Aurora A = target: T1, Aurora A (Homo sapiens, UniProt O14965); assay: Z'-LYTE kinase assay Aurora A; settings: read-out: Kinase inhibition, IC50 Aurora A
T1 construct: purchased Invitrogen PV3612
T1 sequence (O14965 1-403): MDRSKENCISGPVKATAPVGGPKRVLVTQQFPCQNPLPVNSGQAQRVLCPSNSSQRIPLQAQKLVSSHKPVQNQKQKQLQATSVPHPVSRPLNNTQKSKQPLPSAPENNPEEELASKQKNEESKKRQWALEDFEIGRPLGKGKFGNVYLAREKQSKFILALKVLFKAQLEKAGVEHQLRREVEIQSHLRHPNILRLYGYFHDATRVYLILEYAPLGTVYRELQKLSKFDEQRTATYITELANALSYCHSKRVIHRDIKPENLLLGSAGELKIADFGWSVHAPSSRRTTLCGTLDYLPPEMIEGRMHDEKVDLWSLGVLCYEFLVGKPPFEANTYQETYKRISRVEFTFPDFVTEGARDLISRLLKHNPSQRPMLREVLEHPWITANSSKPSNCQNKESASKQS
Protocol: (§1) Kinase assays. The compounds from the example above were tested for their ability to inhibit kinases. Recombinant human CDK2/cyclinA (PV3267), CDK1/cyclinB (PV3292), CDK5/p35 (PV3000) and Aurora A (PV3612) were purchased from Invitrogen (Carlsbad, Calif., USA). Kinase dosage and Z′-LYTE™ substrate for each kinase assay is as follows: CDK2/cyclinA-8 ng/reaction, Ser/Thr 12 Peptide; CDK1/cyclinB-0.8 ng/reaction, Ser/Thr 12 Peptide, CDK5/p35-0.8 ng/reaction, Ser/Thr 12 Peptide, and Aurora A-16 ng/reaction, Ser/Thr 1 Peptide. All enzymatic assays were performed using Z′-LYTE™ Kinase Assay Kits and were carried out following protocols provided by Invitrogen. To prepare stock solutions, compounds were dissolved at 10 mM in 100% DMSO and stored at 4° C. in amber glass vials. Enzyme reactions were initiated by adding recombinant enzyme and Z′-LYTE™ Ser/Thr peptide substrate and ATP mixture to 384-well plates containing diluted test compounds. Kinase and corresponding peptide substrate were incubated for 1 hr at room temperature in the presence of varying amounts of test compound with reaction buffer (20 μM ATP, […] [pH 7.5], 5 mM MgCl2, 0.5 mM EGTA, 0.005% Brij-35). Development buffer was added and incubated for another one hour at room temperature. Reactions were terminated by addition of stop buffer, and fluorescence emission intensity ratio 445 nm/520 nm (excited at 400 nm) was quantified by VICTOR-3 Multilabel Reader (Perkin-Elmer, Waltham, Mass., USA). Phosphorylation was calculated from the emission ratio. IC50 was determined using Sigmoid curve-fitting software Origin 6.0 (MicroCal, LLC, Northampton, Mass., USA).

CDK1/cyclinB = target: T2, CDK1/cyclinB (Homo sapiens, UniProt P06493); assay: Z'-LYTE kinase assay CDK1/cyclinB; settings: read-out: Kinase inhibition, IC50 CDK1B
T2 construct: purchased Invitrogen PV3292
T2 sequence (P06493 whole entry): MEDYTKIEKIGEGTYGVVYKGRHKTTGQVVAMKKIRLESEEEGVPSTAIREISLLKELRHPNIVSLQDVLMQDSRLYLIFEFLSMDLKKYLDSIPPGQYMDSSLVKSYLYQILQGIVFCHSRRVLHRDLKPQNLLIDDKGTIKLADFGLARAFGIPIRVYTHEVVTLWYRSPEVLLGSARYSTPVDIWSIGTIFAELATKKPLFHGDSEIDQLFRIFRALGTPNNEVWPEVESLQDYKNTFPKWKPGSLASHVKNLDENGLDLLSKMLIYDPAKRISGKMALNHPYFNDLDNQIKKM
T2 sequence (P14635 whole entry partner): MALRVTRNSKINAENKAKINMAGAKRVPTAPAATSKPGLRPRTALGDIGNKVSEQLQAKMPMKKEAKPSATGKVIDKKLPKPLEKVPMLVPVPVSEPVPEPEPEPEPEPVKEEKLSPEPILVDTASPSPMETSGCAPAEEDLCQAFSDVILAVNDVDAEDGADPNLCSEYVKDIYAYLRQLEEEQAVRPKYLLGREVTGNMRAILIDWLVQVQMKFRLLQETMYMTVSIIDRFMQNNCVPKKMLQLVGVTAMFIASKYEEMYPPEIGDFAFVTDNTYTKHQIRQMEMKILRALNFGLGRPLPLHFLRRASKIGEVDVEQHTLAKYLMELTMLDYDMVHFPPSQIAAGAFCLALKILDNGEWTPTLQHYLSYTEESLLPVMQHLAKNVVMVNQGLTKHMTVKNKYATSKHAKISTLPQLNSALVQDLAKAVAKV
Protocol: as §1

CDK9T1 = CDK9T1 (Homo sapiens, UniProt P50750); assay: Kinase assay CDK9T1 (Table I); settings: read-out: Kinase inhibition, IC50 CDK9T1
Chain of CDK9T1 (P50750 whole entry): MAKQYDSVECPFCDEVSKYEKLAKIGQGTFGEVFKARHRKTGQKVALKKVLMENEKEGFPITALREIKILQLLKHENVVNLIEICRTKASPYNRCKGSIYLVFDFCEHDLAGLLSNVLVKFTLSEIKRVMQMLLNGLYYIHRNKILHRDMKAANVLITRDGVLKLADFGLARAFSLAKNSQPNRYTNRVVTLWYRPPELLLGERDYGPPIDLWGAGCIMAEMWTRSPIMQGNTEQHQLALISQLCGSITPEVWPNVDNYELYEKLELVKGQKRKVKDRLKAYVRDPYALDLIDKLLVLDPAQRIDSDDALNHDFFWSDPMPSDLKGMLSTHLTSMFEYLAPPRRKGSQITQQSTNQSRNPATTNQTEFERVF
Chain of CDK9T1 (O60563 whole entry partner): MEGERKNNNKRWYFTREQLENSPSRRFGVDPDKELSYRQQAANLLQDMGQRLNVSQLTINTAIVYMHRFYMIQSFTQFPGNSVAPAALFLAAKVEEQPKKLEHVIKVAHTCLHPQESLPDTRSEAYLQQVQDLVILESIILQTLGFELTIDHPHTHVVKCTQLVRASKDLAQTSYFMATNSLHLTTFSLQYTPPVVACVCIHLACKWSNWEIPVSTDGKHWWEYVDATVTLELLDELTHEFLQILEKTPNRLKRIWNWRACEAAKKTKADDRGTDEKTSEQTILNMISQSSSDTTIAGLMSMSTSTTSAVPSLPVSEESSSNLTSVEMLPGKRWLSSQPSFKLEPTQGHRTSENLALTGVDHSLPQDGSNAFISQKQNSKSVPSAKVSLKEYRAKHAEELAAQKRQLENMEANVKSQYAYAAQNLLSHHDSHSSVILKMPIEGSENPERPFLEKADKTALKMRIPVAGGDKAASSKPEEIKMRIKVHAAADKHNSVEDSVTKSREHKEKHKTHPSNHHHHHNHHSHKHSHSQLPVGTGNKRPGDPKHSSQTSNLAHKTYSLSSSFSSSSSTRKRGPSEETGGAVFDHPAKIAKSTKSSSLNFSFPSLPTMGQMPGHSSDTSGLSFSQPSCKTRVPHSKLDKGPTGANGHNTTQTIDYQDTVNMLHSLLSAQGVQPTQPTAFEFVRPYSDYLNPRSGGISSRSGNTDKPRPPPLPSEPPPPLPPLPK
Protocol: [The source words this procedure for another target and reports this target under the same test.] as §1

Aurora B = Aurora B (Homo sapiens, UniProt Q96GD4); assay: Kinase assay Aurora B (Table I); settings: read-out: Kinase inhibition, IC50 Aurora B
Chain of Aurora B (Q96GD4 whole entry): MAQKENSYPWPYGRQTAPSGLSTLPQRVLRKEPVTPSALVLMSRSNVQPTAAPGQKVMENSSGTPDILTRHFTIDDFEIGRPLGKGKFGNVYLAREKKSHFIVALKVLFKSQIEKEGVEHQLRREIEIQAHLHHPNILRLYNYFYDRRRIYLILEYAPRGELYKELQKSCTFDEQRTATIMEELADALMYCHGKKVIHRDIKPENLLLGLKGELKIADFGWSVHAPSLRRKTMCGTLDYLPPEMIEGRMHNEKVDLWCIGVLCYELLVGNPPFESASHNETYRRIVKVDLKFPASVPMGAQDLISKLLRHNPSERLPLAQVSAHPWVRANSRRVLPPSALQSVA
Protocol: [The source words this procedure for another target and reports this target under the same test.] as §1

CDK2/cyclinA = target: T3, CDK2/cyclinA (Homo sapiens, UniProt P24941); assay: Z'-LYTE kinase assay CDK2/cyclinA; settings: read-out: Kinase inhibition, IC50 CDK2A
T3 construct: purchased Invitrogen PV3267
Protocol: as §1

CDK5/p35 = target: T4, CDK5/p35 (Homo sapiens, UniProt Q00535); assay: Z'-LYTE kinase assay CDK5/p35; settings: read-out: Kinase inhibition, IC50 CDK5/p35
T4 construct: purchased Invitrogen PV3000
T4 sequence (Q00535 whole entry): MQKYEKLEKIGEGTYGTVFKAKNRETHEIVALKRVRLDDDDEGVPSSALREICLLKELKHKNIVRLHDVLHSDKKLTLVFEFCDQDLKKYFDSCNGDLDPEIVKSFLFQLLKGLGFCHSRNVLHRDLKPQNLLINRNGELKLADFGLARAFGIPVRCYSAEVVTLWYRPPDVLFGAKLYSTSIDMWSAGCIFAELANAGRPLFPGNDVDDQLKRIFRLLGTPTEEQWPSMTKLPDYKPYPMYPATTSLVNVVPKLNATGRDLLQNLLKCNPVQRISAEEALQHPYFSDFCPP
T4 sequence (Q15078 whole entry partner): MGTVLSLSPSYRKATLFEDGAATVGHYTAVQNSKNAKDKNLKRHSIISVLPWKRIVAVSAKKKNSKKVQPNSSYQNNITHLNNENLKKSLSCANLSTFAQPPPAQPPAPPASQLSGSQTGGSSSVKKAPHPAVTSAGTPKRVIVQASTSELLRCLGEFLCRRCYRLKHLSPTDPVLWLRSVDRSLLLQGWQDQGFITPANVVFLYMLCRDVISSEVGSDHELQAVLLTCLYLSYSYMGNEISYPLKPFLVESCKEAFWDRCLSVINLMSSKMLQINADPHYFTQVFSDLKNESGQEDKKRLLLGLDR
Protocol: as §1

IC50 (Aurora A) | IC50 (CDK1/cyclinB) | IC50 (CDK9T1) | IC50 (Aurora B) | IC50 (CDK2/cyclinA) | IC50 (CDK5/p35) | Structure (SMILES)
> 10000 nM | > 10000 nM | > 10000 nM | > 10000 nM | 7530 nM | > 10000 nM | Cn1cc(-c2ccnc(Nc3ccc(O)cc3Cl)n2)c2ccccc21 [Compound 3, 3-Chloro-4-(4-(1-methyl-1H-indol-3-yl)pyrimidin-2-ylamino)phenol]
> 10000 nM | > 10000 nM |  | > 10000 nM | 1770 nM | > 10000 nM | Cc1cc(O)ccc1Nc1nccc(-c2cn(C)c3ccccc23)n1 [Compound 4, 3-Methyl-4-[4-(1-methyl-1H-indol-3-yl)-pyrimidin-2-ylamino]-phenol]
> 10000 nM | > 10000 nM |  | > 10000 nM | ≥ 100000 nM | > 10000 nM | Cc1cc(O)cc(C)c1Nc1nccc(-c2cn(C)c3ccccc23)n1 [Compound 5, 3,5-Dimethyl-4-[4-(1-methyl-1H-indol-3-yl)-pyrimidin-2-ylamino]-phenol]
1050 nM | 1210 nM | 26 nM | 470 nM | 3 nM | 522 nM | CCn1cc(-c2ccnc(Nc3ccc(O)cc3)n2)c2ccccc21 [Compound 6, 4-[4-(1-Ethyl-1H-indol-3-yl)-pyrimidin-2-ylamino]-phenol]
5840 nM | 1340 nM | 29 nM | 1010 nM | 2 nM | 375 nM | CCn1cc(-c2ccnc(Nc3cccc(O)c3)n2)c2ccccc21 [Compound 7, 3-[4-(1-Ethyl-1H-indol-3-yl)-pyrimidin-2-ylamino]-phenol]
> 10000 nM | 8950 nM | > 10000 nM | > 10000 nM | 411 nM | > 10000 nM | CCn1cc(-c2ccnc(Nc3ccc(O)cc3C)n2)c2ccccc21 [Compound 8, 4-[4-(1-Ethyl-1H-indol-3-yl)-pyrimidin-2-ylamino]-3-methyl-phenol]
> 10000 nM | > 10000 nM | > 10000 nM | > 10000 nM | > 100000 nM | > 10000 nM | CCn1cc(-c2ccnc(Nc3c(C)cc(O)cc3C)n2)c2ccccc21 [Compound 9, 4-[4-(1-Ethyl-1H-indol-3-yl)-pyrimidin-2-ylamino]-3,5-dimethyl-phenol]
4220 nM | 2360 nM | 670 nM |  | 1170 nM | 4370 nM | Oc1ccc(Nc2nccc(-c3cn(Cc4ccccc4)c4ccccc34)n2)cc1 [Compound 10, 4-[4-(1-Benzyl-1H-indol-3-yl)-pyrimidin-2-ylamino]-phenol]
4670 nM | 4820 nM | 1170 nM | > 10000 nM | 4050 nM | > 10000 nM | Oc1cccc(Nc2nccc(-c3cn(Cc4ccccc4)c4ccccc34)n2)c1 [Compound 11, 3-[4-(1-Benzyl-1H-indol-3-yl)-pyrimidin-2-ylamino]-phenol]
270 nM | 4110 nM | > 10000 nM | 750 nM | 172 nM | 5540 nM | CCn1cc(-c2ccnc(Nc3ccc(O)cc3)n2)c2cccnc21 [Compound 12, 4-(4-(1-Ethyl-1H-pyrrolo[2,3-b]pyridin-3-yl)pyrimidin-2-ylamino)phenol]
710 nM | 1180 nM | 450 nM | 2050 nM | 61 nM | 1960 nM | CCn1cc(-c2ccnc(Nc3cccc(O)c3)n2)c2cccnc21 [Compound 13, 3-(4-(1-Ethyl-1H-pyrrolo[2,3-b]pyridin-3-yl)pyrimidin-2-ylamino)phenol]
1340 nM | > 10000 nM | 790 nM | > 10000 nM | 1070 nM | > 10000 nM | CCn1cc(-c2ccnc(Nc3cccc([N+](=O)[O-])c3)n2)c2cccnc21 [Compound 14, 4-(1-Ethyl-1H-pyrrolo[2,3-b]pyridin-3-yl)-N-(3-nitrophenyl)pyrimidin-2-amine]
4900 nM | 30 nM | 52 nM | 5800 nM | 10 nM | 100 nM | CCCn1cc(-c2ccnc(Nc3ccc(S(N)(=O)=O)cc3)n2)c2cccnc21 [Compound 23, 4-(4-(1-Propyl-1H-pyrrolo[2,3-b]pyridin-3-yl)pyrimidin-2-ylamino)benzenesulfonamide]
> 10000 nM | 1570 nM | 350 nM | > 10000 nM | 1340 nM | 620 nM | CCCn1cc(-c2ccnc(Nc3cccc(C(=O)N4CCN(C)CC4)c3)n2)c2cccnc21 [Compound 34, (4-Methylpiperazin-1-yl)(3-(4-(1-propyl-1H-pyrrolo[2,3-b]pyridin-3-yl)pyrimidin-2-ylamino)phenyl)methanone]
2460 nM | 190 nM | 95 nM | > 10000 nM | 16 nM | 350 nM | CCn1cc(-c2ccnc(Nc3ccc(O)cc3)n2)c2ccnc(Cl)c21 [Compound 70, 4-(4-(7-Chloro-1-ethyl-1H-pyrrolo[2,3-c]pyridin-3-yl)pyrimidin-2-ylamino)phenol]
800 nM | 90 nM | 79 nM | 930 nM | 4.3 nM | 100 nM | CCn1cc(-c2ccnc(Nc3cccc(O)c3)n2)c2ccnc(Cl)c21 [Compound 72, 3-(4-(7-Chloro-1-ethyl-1H-pyrrolo[2,3-c]pyridin-3-yl)pyrimidin-2-ylamino)phenol]
